Measurements: patent publication US20040185094A1, “Pharmaceutical” (priority 2000, published 2004)
Entries after “also recorded” stand apart in the source; their conditions may differ.

Columns and labels:
rabbit aorta = assay: Selectivity of EBIO for corpus cavernosum over cardiovascular tissue (isolated aorta); assay type: cell-based; settings: in vitro
Description: PE (1 μM) or 80 mM K^+ contracted rabbit aorta sections were subjected to half-log unit cumulative additions of EBIO (10 nM-1 mM) with approximately 10 minute intervals between each addition.
For each dose response curve, the relaxation responses are expressed as a percentage of the PE-induced contraction. The mean values±s.e. mean are then plotted against log[drug] concentration. Sigmoidal curves were fitted to the data using Origin curve fitting computer package. For the purpose of curve fitting, the minimum relaxation response is constrained to 0% and the maximum relaxation response is allowed to free fit. For EFS response curves, the degree of relaxation was expressed as a percentage of the PE-induced contraction. These values were then plotted against the frequency of stimulation.

rabbit corpus cavernosum [1] = assay: Direct relaxant effect of EBIO on contracted corpus cavernosum strips in organ baths; assay type: cell-based
rabbit corpus cavernosum [2] = assay: Mechanism of EBIO-induced relaxation (L-NOARG incubation, endothelium removal); assay type: cell-based; settings: PE (10 μM) contracted
rabbit corpus cavernosum [3] = assay: Effect on electrical field stimulation (EFS)-induced relaxation; assay type: cell-based
Description: Male New Zealand White rabbits (2.0-3.0 Kg) were killed by cervical dislocation. The abdominal cavity was opened and the penis excised, starting at the base of the organ at the pelvic bones. The corpus cavernosum was carefully dissected free from the surrounding tunica albuginea—2 tissue strips, approximately 10 mm×3 mm×2 mm in size, were obtained from each penis. The dissection was carried out in Krebs Ringer Solution. Tissues were used on the day of harvest.
The strips of corpus cavernosum and were mounted with surgical suture in 5 ml Wesley & Co. organ baths, and immersed in Kreb's solution maintained at 37° C. and aerated with 5% CO2/95% O2 to attain pH 7.4. The suture was connected to a force displacement transducer (Maywood Instruments Ltd.) and changes in isometric tension were recorded on the DART in vitro computer package. The tissues were put under an initial resting tension of 1.5 g and allowed to equilibrate for 1 hour. During equilibration, the tissues were rinsed at 5 ml/min. The approximate tissue tension after equilibration was 1 g. The tissues were then sensitised to contraction with phenylephrine (PE) (10 μM) and KCl (120 mM), and relaxation with sodium nitroprusside (SNP) (100 μM).
Tissues were bathed in “normal” Kreb's containing 5 μM guanethidine and 1 μM atropine, to block NA release and receptors respectively. EFS was delivered by a MS3 stimulator connected to 2 platinum electrodes which were placed at the top and bottom of the organ chambers. EFS parameters are as follows: Voltage=45-65V, Frequency=2-32 Hz, Pulse Width=0.2 ms, Train Duration=10 s. […] An EFS curve involved stimulating PE-contracted tissues at 2 Hz, 4 Hz, 8 Hz, 16 Hz and 32 Hz, and the degree of relaxation was measured by taking the minimum reading from the maximum reading obtained over a 30 s period. […]
For each dose response curve, the relaxation responses are expressed as a percentage of the PE-induced contraction. […] For EFS response curves, the degree of relaxation was expressed as a percentage of the PE-induced contraction. […]

rabbit corpus cavernosum [4] = assay: Effect of EBIO on cGMP-mediated (SNP-induced) relaxation; assay type: cell-based; settings: EBIO 50 μM; SNP dose response

CCn1c(=O)[nH]c2ccccc21 [EBIO, 1-ethyl-2-benzimidazolinone]
effect on blood pressure in vivo (Blood pressure in vivo): no effect
concentrations at which a relaxant effect on rabbit aorta occurs (rabbit aorta): ≥ 100 µM
relaxant effect on rabbit aorta (rabbit aorta; PE (1 μM) or 80 mM K+ contracted, concentrations up to 100 μM): no relaxant effect
IC20 (rabbit corpus cavernosum [1]; Oryctolagus cuniculus, relaxation of rabbit corpus cavernosum): ~50 µM
relaxation of PE-contracted rabbit corpus cavernosum (rabbit corpus cavernosum [1]; PE (10 μM) contracted, EBIO 10 nM-1 mM cumulative, in vitro): concentration-dependent relaxation; also recorded: concentration dependent relaxation
concentrations at which basal tone is suppressed (rabbit corpus cavernosum [1]; rabbit corpus cavernosum basal tone): ≥ 10 µM
EBIO-induced relaxation in the presence of L-NOARG (NOS inhibitor) (rabbit corpus cavernosum [2]; L-NOARG): still observed
EBIO-induced relaxation in endothelium deprived corpus cavernosum (rabbit corpus cavernosum [2]; endothelium removed): still observed; also recorded: not affected
effect on EFS-induced relaxation of PE-contracted corpus cavernosum (rabbit corpus cavernosum [3]; EBIO 50 μM, 2-32 Hz): greatly potentiates; also recorded: enhanced
effect on SNP-induced relaxation of PE-contracted corpus cavernosum (rabbit corpus cavernosum [4]): potentiates; also recorded: enhanced

charybdotoxin [ChTX]
effect of ChTX on EBIO-induced potentiation of EFS-induced relaxation (rabbit corpus cavernosum [3]; ChTX 100 nM with EBIO 50 μM): caused a reduction; also recorded: sensitive
attenuation of endogenous NO-mediated (EFS-induced) relaxation (rabbit corpus cavernosum [3]; ChTX 100 nM, across the frequency range): up to 30%
